Test results reported in the supplement of paper PMC10307832.

How the values were obtained:
Assay in all cases: relative viability (nuclei count vs DMSO), 5 days (fraction); higher = more cells survive
[1] = compound: CCC1=CN=CN=C1N2CCN(CC2)CC3=NC4=C(N3)C=C(C=C4)C(F)(F)F + CC(C)C[C@H](NC(=O)[C@H](Cc1ccccc1)NC(=O)c1cnccn1)B(O)O [Bortezomib] (partner 0.002 µM)
Summary of the method: (§1)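 Relative viability was taken as the ratio of nuclei in treated wells to nuclei in vehicle wells. Lung cancer cell lines in 1536-well plates received compounds by pin tool one day after seeding, either one drug alone or a fixed anchor-drug dose plus five library-drug doses (not always all listed) in √10 steps. Nuclei were counted on 4× images after 5 days of treatment, and values are medians of duplicate plates.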

[2] = compound: CCn1c(-c2nonc2N)nc2cnc(Oc3cccc(NC(=O)c4ccc(OCCN5CCOCC5)cc4)c3)cc21 + Nc1ncn([C@H]2C[C@H](O)[C@@H](CO)O2)c(=O)n1 [Decitabine] (partner 2 µM)
Summary of the method: as §1

[3] = compound: CCC1=CN=CN=C1N2CCN(CC2)CC3=NC4=C(N3)C=C(C=C4)C(F)(F)F + Cc1cc(Nc2cc(N3CCN(C)CC3)nc(Sc3ccc(NC(=O)C4CC4)cc3)n2)n[nH]1 [Tozasertib] (partner 0.1 µM)
Summary of the method: as §1

[4] = compound: CCn1c(-c2nonc2N)nc2cnc(Oc3cccc(NC(=O)c4ccc(OCCN5CCOCC5)cc4)c3)cc21 + N=C(N)NC(=N)NCCc1ccccc1 [Phenformin] (partner 250 µM)
Summary of the method: as §1

Row | Cell Line | relative viability ([1]; first compound 0.04 µM) | relative viability ([1]; first compound 0.1265 µM) | relative viability ([1]; first compound 0.4 µM) | relative viability ([1]; first compound 4 µM) | relative viability ([2]; first compound 0.04 µM) | relative viability ([2]; first compound 0.1265 µM) | relative viability ([2]; first compound 0.4 µM) | relative viability ([2]; first compound 1.265 µM) | relative viability ([2]; first compound 4 µM) | relative viability ([3]; first compound 0.04 µM) | relative viability ([3]; first compound 0.1265 µM) | relative viability ([3]; first compound 0.4 µM) | relative viability ([3]; first compound 1.265 µM) | relative viability ([3]; first compound 4 µM) | relative viability ([4]; first compound 0.04 µM) | relative viability ([4]; first compound 0.1265 µM) | relative viability ([4]; first compound 0.4 µM) | relative viability ([4]; first compound 1.265 µM) | relative viability ([4]; first compound 4 µM) | relative viability ([1]; first compound 1.265 µM)
1 | HCC-366 | 1 | 1.06 | 1.05 | 1.01 | 0.342 | 0.338 | 0.482 | 0.108 | 0.0747 | 0.138 | 0.148 | 0.131 | 0.143 | 0.0757 | 0.694 | 0.665 | 0.412 | 0.0542 | 0.0311 | 
2 | HCC-827 | 1.01 | 0.997 | 1.02 | 0.953 | 0.343 | 0.397 | 0.328 | 0.305 | 0.318 | 0.441 | 0.409 | 0.397 |  | 0.435 | 0.489 | 0.484 | 0.439 | 0.414 | 0.399 | 0.95
3 | HOP-62 | 0.869 | 0.819 | 0.648 | 0.947 | 0.226 | 0.215 | 0.23 | 0.211 | 0.202 | 0.43 | 0.362 | 0.39 | 0.381 | 0.39 | 0.739 | 0.686 | 0.55 | 0.357 | 0.368 | 0.677
4 | IA-LM | 0.786 | 0.911 | 0.761 | 0.702 |  |  |  |  |  |  |  |  |  |  |  |  |  |  |  | 0.752
5 | LC-2-ad | 0.993 | 0.959 | 0.969 | 0.952 | 0.769 | 0.755 | 0.818 | 0.642 | 0.615 | 0.442 | 0.497 | 0.424 | 0.406 | 0.413 | 0.679 | 0.563 | 0.397 | 0.362 | 0.524 | 0.963
6 | LCLC-97TM1 |  | 0.516 | 0.598 | 0.942 | 0.258 | 0.235 |  | 0.232 | 0.258 | 0.209 | 0.196 | 0.234 | 0.207 | 0.205 | 0.485 | 0.431 | 0.23 | 0.463 | 0.361 | 0.668
7 | LK-2 |  |  |  |  | 0.382 | 0.385 | 0.191 | 0.183 | 0.29 | 0.157 | 0.193 | 0.171 | 0.193 | 0.166 | 0.864 | 0.618 | 0.167 | 0.189 | 0.244 | 
8 | NCI-H358 |  |  |  |  | 0.219 | 0.273 | 0.19 | 0.198 | 0.161 | 0.0937 | 0.0935 | 0.101 | 0.112 | 0.109 | 0.352 | 0.295 | 0.224 | 0.27 | 0.198 | 
9 | NCI-H522 |  |  |  |  | 0.672 | 0.819 | 0.698 | 0.648 | 0.621 | 0.59 | 0.591 | 0.467 | 0.518 | 0.499 | 0.561 | 0.613 | 0.6 | 0.522 | 0.507 | 
10 | NCI-H1299 | 1.06 | 0.998 | 1.01 | 1.01 |  |  |  |  |  |  |  |  |  |  |  |  |  |  |  | 0.983
11 | NCI-H1395 |  |  |  |  | 0.701 | 0.601 | 0.646 | 0.459 | 0.521 | 0.733 | 0.807 | 0.715 | 0.698 | 0.756 | 0.517 | 0.45 | 0.453 | 0.305 | 0.365 | 
12 | NCI-H1563 | 0.829 | 1 | 0.838 | 0.976 |  |  |  |  |  |  |  |  |  |  | 0.592 | 0.61 | 0.507 | 0.582 | 0.553 | 0.656
13 | NCI-H1623 |  |  |  |  |  |  |  |  |  | 0.368 | 0.422 | 0.38 | 0.423 | 0.425 | 0.629 | 0.594 | 0.499 | 0.536 | 0.605 | 
14 | NCI-H1648 |  |  |  |  | 0.55 | 0.65 | 0.85 | 0.695 | 0.675 | 0.538 | 0.429 |  | 0.362 | 0.345 |  |  |  |  |  | 
15 | NCI-H1703 | 0.305 | 0.26 | 0.248 | 0.307 |  |  |  |  |  |  |  |  |  |  |  |  |  |  |  | 0.446
16 | NCI-H1792 | 0.885 | 0.782 | 0.926 | 1 | 0.45 | 0.637 | 0.461 | 0.433 | 0.372 |  |  |  |  |  | 0.333 | 0.177 | 0.0802 | 0.145 | 0.225 | 1.04
17 | NCI-H1793 |  |  |  |  | 0.36 | 0.474 | 0.499 | 0.457 | 0.369 | 0.352 | 0.325 | 0.303 |  | 0.256 | 0.459 | 0.464 | 0.253 | 0.212 | 0.168 | 
18 | NCI-H1944 |  |  |  |  | 0.416 | 0.414 | 0.425 | 0.442 | 0.428 | 0.269 | 0.249 | 0.212 | 0.218 | 0.223 | 0.192 | 0.161 | 0.109 | 0.111 | 0.102 | 
19 | NCI-H2170 |  |  |  |  | 0.473 | 0.494 | 0.494 | 0.474 | 0.431 | 0.719 | 0.74 | 0.648 | 0.662 | 0.643 | 0.468 | 0.417 | 0.388 | 0.355 | 0.315 | 
20 | NCI-H2228 | 1.29 | 1.11 | 1.19 | 1.11 |  |  |  |  |  | 0.252 | 0.249 | 0.22 | 0.335 | 0.253 | 0.41 | 0.31 | 0.329 | 0.318 | 0.331 | 1.05
21 | NCI-H2342 |  |  |  |  | 0.664 | 0.755 | 0.814 | 0.579 | 0.687 | 0.467 | 0.428 | 0.571 | 0.333 | 0.398 | 0.71 | 0.585 | 0.581 | 0.449 | 0.66 | 
22 | SK-MES-1 |  |  |  |  | 0.348 | 0.375 | 0.372 | 0.358 | 0.333 | 0.893 | 0.872 | 0.797 | 0.918 | 0.865 | 0.695 | 0.655 | 0.515 | 0.271 | 0.257 | 
23 | SW 900 |  |  |  |  | 0.412 | 0.453 | 0.42 | 0.442 | 0.456 | 0.538 | 0.585 | 0.497 | 0.548 | 0.523 | 0.71 | 0.548 | 0.506 | 0.39 | 0.548 | 
